ChEMBL document CHEMBL4270624, “Synthesis and antibacterial evaluation of 13-substituted cycloberberine derivatives as a novel class of anti-MRSA agents” (Eur J Med Chem, 2018)

Assays:
Staphylococcus aureus [1] = experiment: Antibacterial activity against methicillin-resistant Staphylococcus aureus ATCC BAA-976 after 18 hrs by agar dilution method; format: functional; details: ATCC BAA-976, 18 h
Staphylococcus aureus [2] = experiment: Antibacterial activity against methicillin-resistant Staphylococcus aureus 16-30 clinical isolate after 18 hrs by agar dilution method; format: functional; details: 16-30, 18 h
Staphylococcus aureus [3] = experiment: Antibacterial activity against methicillin-resistant Staphylococcus aureus ATCC 33591 after 18 hrs by agar dilution method; format: functional; details: ATCC 33591, 18 h
Staphylococcus aureus [4] = experiment: Antibacterial activity against methicillin-sensitive Staphylococcus aureus 16-1 clinical isolate after 18 hrs by agar dilution method; format: functional; details: 16-1, 18 h
Staphylococcus aureus [5] = experiment: Antibacterial activity against methicillin-resistant Staphylococcus aureus 13-18 clinical isolate after 18 hrs by agar dilution method; format: functional; details: 13-18, 18 h
Staphylococcus aureus [6] = experiment: Antibacterial activity against methicillin-resistant Staphylococcus aureus 16-34 clinical isolate after 18 hrs by agar dilution method; format: functional; details: 16-34, 18 h
Staphylococcus aureus [7] = experiment: Antibacterial activity against methicillin-resistant Staphylococcus aureus ATCC 43300 after 18 hrs by agar dilution method; format: functional; details: ATCC 43300, 18 h
Staphylococcus aureus [8] = experiment: Antibacterial activity against methicillin-resistant Staphylococcus aureus 13-23 clinical isolate after 18 hrs by agar dilution method; format: functional; details: 13-23, 18 h
Staphylococcus aureus [9] = experiment: Antibacterial activity against methicillin-sensitive Staphylococcus aureus ATCC 29213 after 18 hrs by agar dilution method; format: functional; details: ATCC 29213, 18 h
Staphylococcus aureus [10] = experiment: Antibacterial activity against methicillin-resistant Staphylococcus aureus ATCC BAA-1708 after 18 hrs by agar dilution method; format: functional; details: ATCC BAA-1708, 18 h
[11] = Stability of the compound in Sprague-Dawley rat whole blood assessed as parent compound remaining after 1 hr by LC-MS/MS analysis; format: ADME, tissue-based; details: read-out: Stability
[12] = Stability of the compound in Sprague-Dawley rat whole blood assessed as parent compound remaining after 24 hrs by LC-MS/MS analysis; format: ADME, tissue-based; details: read-out: Stability
[13] = Toxicity in iv dosed Kunming mouse administered as single dose measured for 7 days; format: organism-based; details: in vivo

Compound | MIC (Staphylococcus aureus [1]) | MIC (Staphylococcus aureus [2]) | MIC (Staphylococcus aureus [3]) | MIC (Staphylococcus aureus [4]) | MIC (Staphylococcus aureus [5]) | MIC (Staphylococcus aureus [6]) | MIC (Staphylococcus aureus [7]) | MIC (Staphylococcus aureus [8]) | MIC (Staphylococcus aureus [9]) | MIC (Staphylococcus aureus [10]) | remaining at 1 h [11] | remaining at 24 h [12] | LD50 at 168 h [13]
COc1ccc2c(c[n+]3c4c2cc(Cc2ccccc2)c2c5c(cc(c24)CC3)OCO5)c1OC.[Br-] | 4 µg/mL | 4 µg/mL | 4 µg/mL | 4 µg/mL | 8 µg/mL | 4 µg/mL | 4 µg/mL | 4 µg/mL | 4 µg/mL | 8 µg/mL |  |  | 
COC(=O)c1ccc(Cc2cc3c4ccc(OC)c(OC)c4c[n+]4c3c3c(cc5c(c23)OCO5)CC4)cc1.[Br-] | 32 µg/mL | 64 µg/mL | 32 µg/mL | 64 µg/mL | 32 µg/mL | > 64 µg/mL | 64 µg/mL | 64 µg/mL | 32 µg/mL | 64 µg/mL |  |  | 
COc1ccc2c(c[n+]3c4c2cc(Cc2cc(C(F)(F)F)cc(C(F)(F)F)c2)c2c5c(cc(c24)CC3)OCO5)c1OC.[Br-] | > 64 µg/mL | > 64 µg/mL | > 64 µg/mL | > 64 µg/mL | > 64 µg/mL | > 64 µg/mL | > 64 µg/mL | > 64 µg/mL | > 64 µg/mL | > 64 µg/mL |  |  | 
COc1ccc2c(c[n+]3c4c2cc(Cc2ccc(C)cc2)c2c5c(cc(c24)CC3)OCO5)c1OC.[Br-] | 2 µg/mL | 2 µg/mL | 2 µg/mL | 2 µg/mL | 4 µg/mL | 2 µg/mL | 4 µg/mL | 4 µg/mL | 2 µg/mL | 8 µg/mL |  |  | 
COc1ccc2c(c[n+]3c4c2cc(Cc2ccc(C#N)cc2)c2c5c(cc(c24)CC3)OCO5)c1OC.[Br-] | > 64 µg/mL | > 64 µg/mL | > 64 µg/mL | > 64 µg/mL | > 64 µg/mL | > 64 µg/mL | > 64 µg/mL | > 64 µg/mL | > 64 µg/mL | > 64 µg/mL |  |  | 
COc1ccc2c(c[n+]3c4c2cc(Cc2ccc(Cl)cc2)c2c5c(cc(c24)CC3)OCO5)c1OC.[Br-] | 8 µg/mL | 4 µg/mL | 8 µg/mL | 8 µg/mL | 8 µg/mL | 4 µg/mL | 32 µg/mL | 8 µg/mL | 8 µg/mL | 32 µg/mL |  |  | 
COC(=O)C(c1ccccc1)c1cc2c3ccc(OC)c(OC)c3c[n+]3c2c2c(cc4c(c12)OCO4)CC3.[Br-] (stereo not drawn) | > 64 µg/mL | > 64 µg/mL | > 64 µg/mL | > 64 µg/mL | > 64 µg/mL | > 64 µg/mL | > 64 µg/mL | > 64 µg/mL | > 64 µg/mL | > 64 µg/mL |  |  | 
COc1ccc2c(c[n+]3c4c2cc(Cc2ccc([N+](=O)[O-])cc2)c2c5c(cc(c24)CC3)OCO5)c1OC.[Br-] | > 64 µg/mL | > 64 µg/mL | > 64 µg/mL | > 64 µg/mL | > 64 µg/mL | > 64 µg/mL | > 64 µg/mL | > 64 µg/mL | > 64 µg/mL | > 64 µg/mL |  |  | 
COc1ccc2c(c[n+]3c4c2cc(Cc2ccncc2)c2c5c(cc(c24)CC3)OCO5)c1OC.[Br-] | 64 µg/mL | 64 µg/mL | 64 µg/mL | 64 µg/mL | 64 µg/mL | 64 µg/mL | 64 µg/mL | 32 µg/mL | 64 µg/mL | 64 µg/mL |  |  | 
COc1ccc2c(c[n+]3c4c2cc(Cc2ccc(F)c(C(F)(F)F)c2)c2c5c(cc(c24)CC3)OCO5)c1OC.[Br-] | 32 µg/mL | 16 µg/mL | 32 µg/mL | 8 µg/mL | 16 µg/mL | 64 µg/mL | 32 µg/mL | 32 µg/mL | 32 µg/mL | 32 µg/mL |  |  | 
COc1ccc2c(c[n+]3c4c2cc(Cc2ccc(C(C)C)cc2)c2c5c(cc(c24)CC3)OCO5)c1OC.[Br-] | 16 µg/mL | 16 µg/mL | 8 µg/mL | 8 µg/mL | 32 µg/mL | 16 µg/mL | 32 µg/mL | 32 µg/mL | 8 µg/mL | 32 µg/mL |  |  | 
COc1ccc2c(c[n+]3c4c2cc(Cc2ccc(C(C)(C)C)cc2)c2c5c(cc(c24)CC3)OCO5)c1OC.[Br-] | 64 µg/mL | 64 µg/mL | 64 µg/mL | 32 µg/mL | 64 µg/mL | 64 µg/mL | 64 µg/mL | 64 µg/mL | 32 µg/mL | 64 µg/mL |  |  | 
COc1ccc2c(c[n+]3c4c2ccc2c5c(cc(c24)CC3)OCO5)c1OC.[Br-] | > 64 µg/mL | > 64 µg/mL | > 64 µg/mL | > 64 µg/mL | > 64 µg/mL | > 64 µg/mL | > 64 µg/mL | > 64 µg/mL | > 64 µg/mL | > 64 µg/mL |  |  | 
COc1ccc2c(c[n+]3c4c2cc(Cc2ccc(SC(F)(F)F)cc2)c2c5c(cc(c24)CC3)OCO5)c1OC.[Br-] | > 64 µg/mL | > 64 µg/mL | > 64 µg/mL | > 64 µg/mL | > 64 µg/mL | > 64 µg/mL | > 64 µg/mL | > 64 µg/mL | > 64 µg/mL | > 64 µg/mL |  |  | 
COc1ccc2c(c[n+]3c4c2cc(Cc2ccc(OC(F)(F)F)cc2)c2c5c(cc(c24)CC3)OCO5)c1OC.[Br-] | 64 µg/mL | 64 µg/mL | 32 µg/mL | 64 µg/mL | 32 µg/mL | 64 µg/mL | 64 µg/mL | 32 µg/mL | 32 µg/mL | 64 µg/mL |  |  | 
COc1ccc2c(c[n+]3c4c2cc(Cc2ccc(F)cc2)c2c5c(cc(c24)CC3)OCO5)c1OC.[Br-] | 4 µg/mL | 4 µg/mL | 4 µg/mL | 4 µg/mL | 4 µg/mL | 4 µg/mL | 4 µg/mL | 2 µg/mL | 4 µg/mL | 8 µg/mL |  |  | 
COc1ccc2c(c[n+]3c4c2cc(Cc2ccccc2[N+](=O)[O-])c2c5c(cc(c24)CC3)OCO5)c1OC.[Br-] | 8 µg/mL | 8 µg/mL | 16 µg/mL | 8 µg/mL | 8 µg/mL | 8 µg/mL | 32 µg/mL | 16 µg/mL | 8 µg/mL | 64 µg/mL |  |  | 
COc1ccc2c(c[n+]3c4c2cc(Cc2cc(C)cc(C)c2)c2c5c(cc(c24)CC3)OCO5)c1OC.[Br-] | 2 µg/mL | 4 µg/mL | 4 µg/mL | 4 µg/mL | 4 µg/mL | 4 µg/mL | 8 µg/mL | 4 µg/mL | 4 µg/mL | 8 µg/mL |  |  | 
COc1ccc2c(c[n+]3c4c2cc(Cc2cccnc2)c2c5c(cc(c24)CC3)OCO5)c1OC.[Br-] | 16 µg/mL | 32 µg/mL | 32 µg/mL | 16 µg/mL | 32 µg/mL | 32 µg/mL | > 64 µg/mL | 32 µg/mL | 16 µg/mL | 32 µg/mL |  |  | 
COc1ccc2c(c[n+]3c4c2cc(Cc2c(F)cccc2F)c2c5c(cc(c24)CC3)OCO5)c1OC.[Br-] | 2 µg/mL | 4 µg/mL | 8 µg/mL | 4 µg/mL | 4 µg/mL | 2 µg/mL | 8 µg/mL | 4 µg/mL | 4 µg/mL | 8 µg/mL |  |  | 
COc1ccc2c(c[n+]3c4c2cc(Cc2cccc(C)c2)c2c5c(cc(c24)CC3)OCO5)c1OC.[Br-] | 2 µg/mL | 2 µg/mL | 4 µg/mL | 2 µg/mL | 4 µg/mL | 2 µg/mL | 4 µg/mL | 4 µg/mL | 2 µg/mL | 4 µg/mL |  |  | 
COc1ccc2c(c[n+]3c4c2cc(C(C)c2ccccc2)c2c5c(cc(c24)CC3)OCO5)c1OC.[Br-] (stereo not drawn) | 1 µg/mL | 2 µg/mL | 2 µg/mL | 2 µg/mL | 2 µg/mL | 2 µg/mL | 4 µg/mL | 2 µg/mL | 2 µg/mL | 4 µg/mL | 91.2% | 77.3% | 41.2 mg/kg
COc1ccc2c(c[n+]3c4c2cc(Cc2ccc(Br)cc2)c2c5c(cc(c24)CC3)OCO5)c1OC.[Br-] | 16 µg/mL | 16 µg/mL | 16 µg/mL | 16 µg/mL | 16 µg/mL | 16 µg/mL | 32 µg/mL | 16 µg/mL | 16 µg/mL | 64 µg/mL |  |  | 
COc1ccc2c(c[n+]3c4c2cc(Cc2ccc(F)cc2F)c2c5c(cc(c24)CC3)OCO5)c1OC.[Br-] | 4 µg/mL | 2 µg/mL | 4 µg/mL | 2 µg/mL | 4 µg/mL | 2 µg/mL | 8 µg/mL | 4 µg/mL | 4 µg/mL | 4 µg/mL |  |  | 
COc1ccc2c(Cc3ccccc3)c3[n+](cc2c1OC)CCc1cc2c(cc1-3)OCO2.[Br-] | 32 µg/mL | 64 µg/mL | 64 µg/mL | 16 µg/mL | 32 µg/mL | 64 µg/mL | 64 µg/mL | 32 µg/mL | 32 µg/mL | 32 µg/mL |  |  | 
C[C@H]1COc2c(N3CCN(C)CC3)c(F)cc3c(=O)c(C(=O)O)cn1c23.C[C@H]1COc2c(N3CCN(C)CC3)c(F)cc3c(=O)c(C(=O)O)cn1c23.O [LEVOFLOXACIN] | 0.125 µg/mL | 32 µg/mL | 0.125 µg/mL | 0.125 µg/mL | 32 µg/mL | 32 µg/mL | 0.125 µg/mL | 32 µg/mL | 0.125 µg/mL | 8 µg/mL |  |  | 
